Results on eight compounds are retold here after ChEMBL document CHEMBL5465560, “Selectivity Literature for EUbOPEN Chemogenomic Library” (2024).

For series [1], the target named is Vascular endothelial growth factor receptor 2 (Homo sapiens, UniProt P35968). As to the kind of experiment: Selectivity interaction (Ambit KINOMEscan and KiNATiv profiling in Jurkat cells) EUB0000090b KDR. The format is cell-based. The conditions noted are these: at 1 µM.
The target in series [2] is Casein kinase I isoform gamma-1 (Homo sapiens) (UniProt Q9HCP0). As to the kind of experiment: Selectivity interaction (SelectScreen profiling (Invitrogen)) EUB0000607a CSNK1G1. The conditions noted are these: at 2 µM.
Sequence of Casein kinase I isoform gamma-1 (Homo sapiens) (Q9HCP0 whole entry, looked up, canonical isoform): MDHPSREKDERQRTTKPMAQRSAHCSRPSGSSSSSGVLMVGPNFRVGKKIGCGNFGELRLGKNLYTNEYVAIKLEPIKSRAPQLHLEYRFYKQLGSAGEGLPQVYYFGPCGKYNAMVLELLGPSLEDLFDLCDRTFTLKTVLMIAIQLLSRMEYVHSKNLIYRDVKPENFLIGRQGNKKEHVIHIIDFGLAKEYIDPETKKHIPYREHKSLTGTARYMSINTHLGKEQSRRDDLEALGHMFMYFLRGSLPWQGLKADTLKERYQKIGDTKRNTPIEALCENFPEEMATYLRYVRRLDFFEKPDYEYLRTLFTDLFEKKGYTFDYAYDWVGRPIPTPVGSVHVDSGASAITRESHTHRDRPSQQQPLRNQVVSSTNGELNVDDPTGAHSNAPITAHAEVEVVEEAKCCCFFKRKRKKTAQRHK
Series [3] addresses Cyclin-dependent kinase 2 (Homo sapiens, UniProt P24941). The conditions noted are these: at 10 µM.
Series [4] concerns the target T1, Cyclin-G-associated kinase (Homo sapiens) (UniProt O14976).
T1 sequence (whole entry): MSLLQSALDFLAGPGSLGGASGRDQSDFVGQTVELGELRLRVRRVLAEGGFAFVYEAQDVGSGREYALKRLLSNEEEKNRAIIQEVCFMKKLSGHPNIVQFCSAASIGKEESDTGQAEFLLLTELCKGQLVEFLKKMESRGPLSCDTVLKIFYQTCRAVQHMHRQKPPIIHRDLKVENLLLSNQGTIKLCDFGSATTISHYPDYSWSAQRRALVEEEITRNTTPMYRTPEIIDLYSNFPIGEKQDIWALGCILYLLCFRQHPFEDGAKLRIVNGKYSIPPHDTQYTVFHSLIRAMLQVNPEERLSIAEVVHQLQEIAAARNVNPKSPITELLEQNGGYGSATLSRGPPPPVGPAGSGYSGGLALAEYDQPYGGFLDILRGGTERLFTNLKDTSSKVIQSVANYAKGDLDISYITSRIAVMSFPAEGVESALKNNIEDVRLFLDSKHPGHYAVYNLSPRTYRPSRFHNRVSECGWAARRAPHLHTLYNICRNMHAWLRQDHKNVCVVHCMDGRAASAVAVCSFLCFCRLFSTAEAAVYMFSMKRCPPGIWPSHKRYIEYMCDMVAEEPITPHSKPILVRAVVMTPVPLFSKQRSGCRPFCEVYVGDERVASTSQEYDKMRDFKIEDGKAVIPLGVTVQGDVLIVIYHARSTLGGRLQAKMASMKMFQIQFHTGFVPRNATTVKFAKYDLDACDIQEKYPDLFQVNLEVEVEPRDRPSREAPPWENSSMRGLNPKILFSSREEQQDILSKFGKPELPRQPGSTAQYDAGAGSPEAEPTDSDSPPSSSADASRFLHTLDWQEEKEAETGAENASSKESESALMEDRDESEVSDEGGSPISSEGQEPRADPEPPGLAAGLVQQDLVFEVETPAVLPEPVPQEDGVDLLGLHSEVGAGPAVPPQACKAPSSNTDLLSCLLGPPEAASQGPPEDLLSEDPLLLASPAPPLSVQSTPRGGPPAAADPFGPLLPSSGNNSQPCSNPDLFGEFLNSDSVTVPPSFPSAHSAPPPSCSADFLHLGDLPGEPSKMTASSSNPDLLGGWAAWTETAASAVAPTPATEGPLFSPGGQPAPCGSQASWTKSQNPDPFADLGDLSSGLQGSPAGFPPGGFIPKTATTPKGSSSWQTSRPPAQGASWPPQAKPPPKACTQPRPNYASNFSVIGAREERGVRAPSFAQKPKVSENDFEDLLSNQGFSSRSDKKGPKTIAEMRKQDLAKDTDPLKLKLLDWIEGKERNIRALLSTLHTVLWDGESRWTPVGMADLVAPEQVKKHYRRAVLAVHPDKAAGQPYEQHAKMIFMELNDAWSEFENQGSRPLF
The following applies: at 10 µM.

Series [5] concerns the target cAMP-dependent protein kinase catalytic subunit beta (Homo sapiens) (UniProt P22694). The following applies: at 10 µM.
The target of series [6] is DNA (cytosine-5)-methyltransferase 1 (Homo sapiens) (UniProt P26358). As to the kind of experiment: Selectivity interaction (Methyltransferase screen (Scintillation proximity assays)) EUB0000255b DNMT1.
Sequence of DNA (cytosine-5)-methyltransferase 1 (Homo sapiens) (P26358 whole entry): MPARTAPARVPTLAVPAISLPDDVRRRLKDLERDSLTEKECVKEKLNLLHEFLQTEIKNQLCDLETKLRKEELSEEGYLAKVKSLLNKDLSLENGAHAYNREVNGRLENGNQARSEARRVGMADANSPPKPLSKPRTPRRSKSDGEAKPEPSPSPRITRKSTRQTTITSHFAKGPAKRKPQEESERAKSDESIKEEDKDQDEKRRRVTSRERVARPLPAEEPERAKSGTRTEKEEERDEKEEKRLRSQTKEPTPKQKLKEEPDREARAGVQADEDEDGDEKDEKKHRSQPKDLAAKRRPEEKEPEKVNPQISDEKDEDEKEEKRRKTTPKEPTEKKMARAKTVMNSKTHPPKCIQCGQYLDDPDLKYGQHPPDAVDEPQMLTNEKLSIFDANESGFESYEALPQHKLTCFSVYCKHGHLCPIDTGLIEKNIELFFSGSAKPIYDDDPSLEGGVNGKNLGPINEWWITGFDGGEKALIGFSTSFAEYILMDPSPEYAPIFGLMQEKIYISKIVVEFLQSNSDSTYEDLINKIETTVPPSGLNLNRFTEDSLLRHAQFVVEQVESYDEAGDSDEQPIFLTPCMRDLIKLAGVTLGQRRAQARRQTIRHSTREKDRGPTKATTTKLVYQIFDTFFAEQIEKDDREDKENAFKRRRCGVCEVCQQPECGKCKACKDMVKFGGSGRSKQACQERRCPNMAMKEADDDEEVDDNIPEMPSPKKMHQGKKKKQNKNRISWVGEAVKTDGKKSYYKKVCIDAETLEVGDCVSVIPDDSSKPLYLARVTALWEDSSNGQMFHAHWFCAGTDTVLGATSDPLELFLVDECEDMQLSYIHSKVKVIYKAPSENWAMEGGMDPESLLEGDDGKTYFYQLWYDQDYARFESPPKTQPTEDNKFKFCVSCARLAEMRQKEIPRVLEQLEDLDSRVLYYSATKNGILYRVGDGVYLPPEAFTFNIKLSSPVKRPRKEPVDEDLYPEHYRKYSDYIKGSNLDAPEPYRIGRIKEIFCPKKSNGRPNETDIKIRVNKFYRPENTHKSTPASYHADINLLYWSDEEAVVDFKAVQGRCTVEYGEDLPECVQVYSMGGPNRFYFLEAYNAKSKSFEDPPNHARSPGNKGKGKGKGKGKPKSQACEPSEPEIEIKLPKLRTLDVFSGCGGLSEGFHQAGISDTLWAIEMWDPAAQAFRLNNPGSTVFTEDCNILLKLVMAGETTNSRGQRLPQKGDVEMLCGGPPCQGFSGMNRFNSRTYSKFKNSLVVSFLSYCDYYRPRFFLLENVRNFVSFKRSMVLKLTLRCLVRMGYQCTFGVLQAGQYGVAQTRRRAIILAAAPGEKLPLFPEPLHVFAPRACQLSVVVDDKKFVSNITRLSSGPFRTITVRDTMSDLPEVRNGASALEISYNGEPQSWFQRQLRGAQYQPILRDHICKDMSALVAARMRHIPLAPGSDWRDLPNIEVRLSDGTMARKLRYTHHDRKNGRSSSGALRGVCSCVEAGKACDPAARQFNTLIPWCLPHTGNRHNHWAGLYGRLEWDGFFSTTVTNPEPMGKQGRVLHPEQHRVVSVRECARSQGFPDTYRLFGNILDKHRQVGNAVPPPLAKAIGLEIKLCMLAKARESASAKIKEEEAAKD
Another series deals with hERG (KCNH2) (Homo sapiens, UniProt Q12809). The experiment in a line: Selectivity interaction (Safety Panel 44tm (Eurofins)) EUB0000162b KCNH2. The conditions noted are these: at 10 µM, read-out: % of control.
Sequence of hERG (KCNH2) (Q12809 whole entry): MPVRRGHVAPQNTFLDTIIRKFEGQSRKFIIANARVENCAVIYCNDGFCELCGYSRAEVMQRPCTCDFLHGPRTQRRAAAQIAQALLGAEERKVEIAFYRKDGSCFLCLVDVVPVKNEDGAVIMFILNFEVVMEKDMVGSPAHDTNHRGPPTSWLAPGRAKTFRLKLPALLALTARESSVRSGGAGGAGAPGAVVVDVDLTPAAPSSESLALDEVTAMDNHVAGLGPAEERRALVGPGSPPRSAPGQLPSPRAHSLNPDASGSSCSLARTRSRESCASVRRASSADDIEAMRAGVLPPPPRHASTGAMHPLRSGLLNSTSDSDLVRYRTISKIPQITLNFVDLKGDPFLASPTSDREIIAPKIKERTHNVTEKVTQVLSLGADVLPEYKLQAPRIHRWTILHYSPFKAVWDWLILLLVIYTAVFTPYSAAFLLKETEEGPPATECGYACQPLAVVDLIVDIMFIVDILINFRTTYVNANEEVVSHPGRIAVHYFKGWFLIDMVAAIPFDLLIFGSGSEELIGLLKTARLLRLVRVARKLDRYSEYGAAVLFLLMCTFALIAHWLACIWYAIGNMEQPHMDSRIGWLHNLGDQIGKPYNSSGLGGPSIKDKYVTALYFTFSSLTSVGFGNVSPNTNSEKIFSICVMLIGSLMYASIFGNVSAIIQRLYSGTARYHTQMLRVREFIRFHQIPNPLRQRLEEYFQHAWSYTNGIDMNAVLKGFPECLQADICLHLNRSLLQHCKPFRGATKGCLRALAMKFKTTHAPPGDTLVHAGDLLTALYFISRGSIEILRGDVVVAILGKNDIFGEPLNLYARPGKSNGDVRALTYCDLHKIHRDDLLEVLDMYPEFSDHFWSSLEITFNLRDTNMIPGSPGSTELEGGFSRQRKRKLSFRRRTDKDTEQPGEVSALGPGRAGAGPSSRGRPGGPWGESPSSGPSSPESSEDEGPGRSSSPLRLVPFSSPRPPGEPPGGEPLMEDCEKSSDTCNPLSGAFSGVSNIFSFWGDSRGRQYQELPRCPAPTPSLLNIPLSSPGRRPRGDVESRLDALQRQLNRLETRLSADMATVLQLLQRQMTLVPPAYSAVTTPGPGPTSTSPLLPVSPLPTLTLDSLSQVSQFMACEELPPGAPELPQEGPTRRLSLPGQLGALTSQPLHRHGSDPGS
The target of a further series is Insulin receptor (Homo sapiens, UniProt P06213). As to the kind of experiment: Selectivity interaction (Millipore kinase profiler) EUB0000124b INSR. The following applies: at 10 µM.
Sequence of Insulin receptor (P06213 28-758 limits assumed): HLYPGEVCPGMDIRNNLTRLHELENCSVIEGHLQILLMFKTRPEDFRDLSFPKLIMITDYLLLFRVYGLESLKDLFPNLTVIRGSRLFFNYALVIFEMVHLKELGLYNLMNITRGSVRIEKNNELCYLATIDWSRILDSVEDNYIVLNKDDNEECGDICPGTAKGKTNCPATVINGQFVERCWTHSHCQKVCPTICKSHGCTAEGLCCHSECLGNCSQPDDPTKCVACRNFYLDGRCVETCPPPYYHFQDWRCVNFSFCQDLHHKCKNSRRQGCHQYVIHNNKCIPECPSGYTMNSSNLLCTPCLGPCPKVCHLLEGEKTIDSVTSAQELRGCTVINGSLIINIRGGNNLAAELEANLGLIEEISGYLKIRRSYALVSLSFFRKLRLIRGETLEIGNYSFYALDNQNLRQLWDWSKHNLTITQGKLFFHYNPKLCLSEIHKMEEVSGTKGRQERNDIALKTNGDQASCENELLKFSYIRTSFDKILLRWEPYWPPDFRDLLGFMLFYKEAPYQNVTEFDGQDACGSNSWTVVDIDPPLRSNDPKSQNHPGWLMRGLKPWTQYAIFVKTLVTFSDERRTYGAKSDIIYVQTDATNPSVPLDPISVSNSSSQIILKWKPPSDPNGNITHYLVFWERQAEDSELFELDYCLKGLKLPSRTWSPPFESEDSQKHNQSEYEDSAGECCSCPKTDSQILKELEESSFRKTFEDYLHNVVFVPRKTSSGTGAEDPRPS
Sequence of Insulin receptor (P06213 763-1382 limits assumed): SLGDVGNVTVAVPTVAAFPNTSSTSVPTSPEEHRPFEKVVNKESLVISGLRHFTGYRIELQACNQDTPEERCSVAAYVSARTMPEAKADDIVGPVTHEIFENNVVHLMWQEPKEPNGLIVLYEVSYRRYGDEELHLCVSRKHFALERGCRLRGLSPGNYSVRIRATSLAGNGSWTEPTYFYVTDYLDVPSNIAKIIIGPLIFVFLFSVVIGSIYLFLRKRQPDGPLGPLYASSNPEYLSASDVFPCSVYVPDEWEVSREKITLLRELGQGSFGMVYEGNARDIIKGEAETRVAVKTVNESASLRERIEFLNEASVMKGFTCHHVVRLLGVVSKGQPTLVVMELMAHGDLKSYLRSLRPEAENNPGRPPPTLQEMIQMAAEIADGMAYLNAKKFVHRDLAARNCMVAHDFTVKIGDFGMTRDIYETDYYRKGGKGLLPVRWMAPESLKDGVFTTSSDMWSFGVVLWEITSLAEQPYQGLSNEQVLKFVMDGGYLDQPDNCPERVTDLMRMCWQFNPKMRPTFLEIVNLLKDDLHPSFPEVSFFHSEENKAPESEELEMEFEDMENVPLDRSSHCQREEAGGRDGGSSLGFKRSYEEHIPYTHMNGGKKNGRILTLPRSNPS
In series [7] the target is Serine/threonine-protein kinase 33 (Homo sapiens) (UniProt Q9BYT3). As to the kind of experiment: Selectivity interaction (KinomeScan (DiscoverX)) EUB0000092b STK33. The following applies: at 10 µM.
Sequence of Serine/threonine-protein kinase 33 (Homo sapiens) (Q9BYT3 whole entry, looked up): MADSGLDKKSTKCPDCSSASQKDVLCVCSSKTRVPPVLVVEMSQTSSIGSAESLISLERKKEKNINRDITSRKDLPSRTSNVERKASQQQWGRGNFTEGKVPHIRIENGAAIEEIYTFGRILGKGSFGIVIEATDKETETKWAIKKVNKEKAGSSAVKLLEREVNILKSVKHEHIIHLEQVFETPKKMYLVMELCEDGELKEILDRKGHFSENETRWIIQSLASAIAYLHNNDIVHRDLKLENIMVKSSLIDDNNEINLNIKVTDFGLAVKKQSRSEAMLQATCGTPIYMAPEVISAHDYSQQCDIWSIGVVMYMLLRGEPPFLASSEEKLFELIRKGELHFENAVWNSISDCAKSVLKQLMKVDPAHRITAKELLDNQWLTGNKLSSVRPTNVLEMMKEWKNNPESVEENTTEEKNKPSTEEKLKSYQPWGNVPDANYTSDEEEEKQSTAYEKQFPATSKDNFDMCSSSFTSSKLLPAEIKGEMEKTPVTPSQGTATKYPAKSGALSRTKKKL
Series [8] addresses Ribosomal protein S6 kinase alpha-2 (Homo sapiens) (UniProt Q15349). The experiment in a line: Selectivity interaction (KinomeScan (DiscoverX)) EUB0000618a RPS6KA2. The conditions noted are these: at 10 µM.

SMILES strings stand for the structures.

In the case of `CN(C)C/C=C/C(=O)Nc1ccc(C(=O)N2CCCC(Nc3ncc(Cl)c(-c4c[nH]c5ccccc45)n3)C2)cc1` (stereo unspecified), in [1], the % of control turned out to be 86%.

Turning to `CNC(=O)Nc1ccc(-c2nc(N3CC4CCC(C3)O4)c3cnn(C4CCC5(CC4)OCCO5)c3n2)cc1`, the % of inhibition in series [2] was -2%.

On to `Cc1cc([C@@H](C)Nc2ccccc2C(=O)O)c2nc(N3CCOCC3)cc(=O)n2c1` [AZD-6482], for which the % of control in series [3] was found to be 93%; in [4], 75%; in series [5], 100%.

As for `COCCN1CCC(c2cc(CN(C)C(=O)c3cccc(Oc4ccccc4)c3)ccn2)CC1`, the results for the % activity in [6] (at 1 µM) and in [6] (at 10 µM) were over 95% and 79%, respectively.

For `CN(C)C(=O)Cn1cc(-c2ccc(-c3cncc4ccccc34)cc2)cn1`, the activity on hERG (KCNH2) was 85%.

In the case of `CC(=O)Nc1cccc(-n2c(=O)n(C3CC3)c(=O)c3c(Nc4ccc(I)cc4F)n(C)c(=O)c(C)c32)c1`, at Insulin receptor, the % of control amounted to 129%.

In series [7], `CCC(=O)N1CCN(c2ccc(-n3c(=O)ccc4cnc5ccc(-c6cnc7ccccc7c6)cc5c43)cc2C(F)(F)F)CC1` gave a % of control of 90%.

`O[C@H]1CC[C@H](Nc2ncc3nc(Nc4c(F)cc(F)cc4F)n([C@H]4CCOC4)c3n2)CC1` came in with a % of control in series [8] of 78%.
